The OligoGym collection
Values joined by “and” are separate entries in the source; they are usually repeats but may differ in a detail not shown here. Equal entries are not always repeated. HELM strings list units from the 5' end as sugar, base in round brackets, then linkage (d deoxyribose, r ribose, m 2'-O-methyl, p phosphodiester). Methylation of C is not given here. [moe] = 2'-O-(2-methoxyethyl) (MOE); [cEt] = constrained ethyl (cEt); [sp] = phosphorothioate linkage

Molecular target: HBV
Details: ASO

Substance | target mRNA inhibition (HepG2, 0.07 µM) | also measured
RNA1{[moe](G)[sp].[moe](A)[sp].[moe](G)[sp].d(G)[sp].d(C)[sp].d(A)[sp].d(T)[sp].d(A)[sp].d(G)[sp].d(C)[sp].d(A)[sp].d(G)[sp].[moe](C)[sp].[moe](A)[sp].[moe](G)[sp].[moe](G)}$$$$V2.0 | 58% and 57% | –
RNA1{[moe](A)[sp].[moe](A)[sp].d(G)[sp].d(A)[sp].d(T)[sp].d(G)[sp].d(A)[sp].d(G)[sp].d(G)[sp].d(C)[sp].d(A)[sp].[moe](T)[sp].[moe](A)[sp].[moe](G)[sp].[moe](C)[sp].[moe](A)[sp].[moe](G)}$$$$V2.0 | 72% and 68% | –
RNA1{[moe](T)[sp].[moe](G)[sp].[moe](C)[sp].[moe](A)[sp].d(G)[sp].d(A)[sp].d(G)[sp].d(G)[sp].d(T)[sp].d(G)[sp].d(A)[sp].d(A)[sp].d(G)[sp].[moe](C)[sp].[moe](G)[sp].[moe](A)}$$$$V2.0 | 60% and 68% | –
RNA1{[moe](A)[sp].[cEt](A)[sp].[moe](G)[sp].[cEt](C)[sp].d(G)[sp].d(A)[sp].d(A)[sp].d(G)[sp].d(T)[sp].d(G)[sp].d(C)[sp].d(A)[sp].d(C)[sp].[moe](A)[sp].[moe](C)[sp].[moe](G)[sp].[moe](G)}$$$$V2.0 | – | target mRNA inhibition (HepG2, 0.009375 µM): 29%; target mRNA inhibition (HepG2, 0.01875 µM): 30%; target mRNA inhibition (HepG2, 0.0375 µM): 41%; target mRNA inhibition (HepG2, 0.075 µM): 71%; target mRNA inhibition (HepG2, 0.15 µM): 86%; target mRNA inhibition (HepG2, 0.3 µM): 88%
RNA1{[moe](G)[sp].[moe](T)[sp].d(G)[sp].d(A)[sp].d(A)[sp].d(G)[sp].d(C)[sp].d(G)[sp].d(A)[sp].d(A)[sp].d(G)[sp].[moe](T)[sp].[moe](G)[sp].[moe](C)[sp].[moe](A)[sp].[moe](C)[sp].[moe](A)}$$$$V2.0 | 73% and 68% | –
RNA1{[moe](A)[sp].[moe](C)[sp].[moe](G)[sp].d(T)[sp].d(G)[sp].d(C)[sp].d(A)[sp].d(G)[sp].d(A)[sp].d(G)[sp].d(G)[sp].d(T)[sp].[moe](G)[sp].[moe](A)[sp].[moe](A)[sp].[moe](G)[sp].[moe](C)}$$$$V2.0 | 79% and 72% | –
RNA1{[moe](A)[sp].[moe](G)[sp].[moe](G)[sp].d(C)[sp].d(A)[sp].d(T)[sp].d(A)[sp].d(G)[sp].d(C)[sp].d(A)[sp].d(G)[sp].d(C)[sp].[moe](A)[sp].[moe](G)[sp].[moe](G)[sp].[moe](A)[sp].[moe](T)}$$$$V2.0 | 55% and 53% | –
RNA1{[moe](G)[sp].[moe](A)[sp].[moe](A)[sp].[moe](C)[sp].d(T)[sp].d(G)[sp].d(G)[sp].d(A)[sp].d(G)[sp].d(C)[sp].d(C)[sp].d(A)[sp].d(C)[sp].[moe](C)[sp].[moe](A)[sp].[moe](G)[sp].[moe](C)}$$$$V2.0 | 69% and 49% | –
RNA1{[moe](G)[sp].[moe](A)[sp].[moe](G)[sp].[moe](A)[sp].d(A)[sp].d(G)[sp].d(T)[sp].d(C)[sp].d(C)[sp].d(A)[sp].d(C)[sp].d(C)[sp].d(A)[sp].[moe](C)[sp].[moe](G)[sp].[moe](A)[sp].[moe](G)}$$$$V2.0 | 42% and 29% | –
RNA1{[moe](C)[sp].[moe](A)[sp].[moe](G)[sp].[moe](A)[sp].[moe](G)[sp].d(G)[sp].d(T)[sp].d(G)[sp].d(A)[sp].d(A)[sp].d(G)[sp].d(C)[sp].d(G)[sp].d(A)[sp].[moe](A)[sp].[moe](G)}$$$$V2.0 | 60% and 57% | –
RNA1{[moe](C)[sp].[cEt](T)[sp].d(G)[sp].d(A)[sp].d(A)[sp].d(C)[sp].d(A)[sp].d(A)[sp].d(A)[sp].d(T)[sp].d(G)[sp].d(G)[sp].[cEt](C)[sp].[moe](A)[sp].[cEt](C)[sp].[moe](T)}$$$$V2.0 | 58% and 71% | –
RNA1{[moe](G)[sp].[cEt](C)[sp].[cEt](A)[sp].d(G)[sp].d(T)[sp].d(A)[sp].d(T)[sp].d(G)[sp].d(G)[sp].d(A)[sp].d(T)[sp].d(C)[sp].d(G)[sp].[cEt](G)[sp].[cEt](C)[sp].[moe](A)}$$$$V2.0 | 77% and 75% | –
RNA1{[moe](G)[sp].[moe](C)[sp].d(A)[sp].d(G)[sp].d(A)[sp].d(G)[sp].d(G)[sp].d(T)[sp].d(G)[sp].d(A)[sp].d(A)[sp].[moe](G)[sp].[moe](C)[sp].[moe](G)[sp].[moe](A)[sp].[moe](A)[sp].[moe](G)}$$$$V2.0 | 20% and 40% | –
RNA1{[moe](G)[sp].[moe](T)[sp].[moe](G)[sp].[moe](C)[sp].d(A)[sp].d(G)[sp].d(A)[sp].d(G)[sp].d(G)[sp].d(T)[sp].d(G)[sp].d(A)[sp].d(A)[sp].[moe](G)[sp].[moe](C)[sp].[moe](G)}$$$$V2.0 | 64% and 63% | –
RNA1{[moe](C)[sp].[moe](T)[sp].[moe](G)[sp].[moe](G)[sp].[moe](A)[sp].[moe](G)[sp].d(C)[sp].d(C)[sp].d(A)[sp].d(C)[sp].d(C)[sp].d(A)[sp].d(G)[sp].d(C)[sp].d(A)[sp].[moe](G)[sp].[moe](G)}$$$$V2.0 | 54% and 50% | –
RNA1{[moe](C)[sp].[moe](G)[sp].[moe](T)[sp].d(G)[sp].d(C)[sp].d(A)[sp].d(G)[sp].d(A)[sp].d(G)[sp].d(G)[sp].d(T)[sp].d(G)[sp].[moe](A)[sp].[moe](A)[sp].[moe](G)[sp].[moe](C)}$$$$V2.0 | 62% and 42% | –
RNA1{[moe](G)[sp].[moe](A)[sp].[moe](A)[sp].[moe](C)[sp].d(C)[sp].d(A)[sp].d(C)[sp].d(T)[sp].d(G)[sp].d(A)[sp].d(A)[sp].d(C)[sp].d(A)[sp].[moe](A)[sp].[moe](A)[sp].[moe](T)}$$$$V2.0 | 34% and 23% | –
RNA1{[moe](C)[sp].[moe](A)[sp].[moe](G)[sp].d(A)[sp].d(G)[sp].d(G)[sp].d(T)[sp].d(G)[sp].d(A)[sp].d(A)[sp].d(G)[sp].d(C)[sp].d(G)[sp].[cEt](A)[sp].[cEt](A)[sp].[cEt](G)}$$$$V2.0 | 60% and 62% | –
RNA1{[moe](C)[sp].[moe](G)[sp].[moe](T)[sp].[moe](G)[sp].d(C)[sp].d(A)[sp].d(G)[sp].d(A)[sp].d(G)[sp].d(G)[sp].d(T)[sp].d(G)[sp].d(A)[sp].[moe](A)[sp].[moe](G)[sp].[moe](C)[sp].[moe](G)}$$$$V2.0 | 58% and 43% | –
RNA1{[moe](A)[sp].[moe](A)[sp].[moe](C)[sp].[moe](C)[sp].d(A)[sp].d(C)[sp].d(T)[sp].d(G)[sp].d(A)[sp].d(A)[sp].d(C)[sp].d(A)[sp].d(A)[sp].[moe](A)[sp].[moe](T)[sp].[moe](G)}$$$$V2.0 | 52% and 54% | –
RNA1{[moe](T)[sp].[cEt](T)[sp].[cEt](T)[sp].d(A)[sp].d(T)[sp].d(G)[sp].d(C)[sp].d(C)[sp].d(T)[sp].d(A)[sp].d(C)[sp].d(A)[sp].d(G)[sp].[cEt](C)[sp].[cEt](C)[sp].[moe](T)}$$$$V2.0 | 55% and 49% | –
RNA1{[moe](T)[sp].[moe](T)[sp].[moe](T)[sp].[moe](A)[sp].[moe](T)[sp].d(G)[sp].d(C)[sp].d(C)[sp].d(T)[sp].d(A)[sp].d(C)[sp].d(A)[sp].d(G)[sp].d(C)[sp].[moe](C)[sp].[moe](T)}$$$$V2.0 | 53% and 37% | –
RNA1{[moe](T)[sp].[moe](A)[sp].d(T)[sp].d(G)[sp].d(C)[sp].d(C)[sp].d(T)[sp].d(A)[sp].d(C)[sp].d(A)[sp].d(G)[sp].[moe](C)[sp].[moe](C)[sp].[moe](T)[sp].[moe](C)[sp].[moe](C)}$$$$V2.0 | 54% and 55% | –
RNA1{[moe](C)[sp].[moe](C)[sp].d(A)[sp].d(A)[sp].d(T)[sp].d(T)[sp].d(T)[sp].d(A)[sp].d(T)[sp].d(G)[sp].d(C)[sp].[moe](C)[sp].[moe](T)[sp].[moe](A)[sp].[moe](C)[sp].[moe](A)[sp].[moe](G)}$$$$V2.0 | 41% and 42% | –
RNA1{[moe](G)[sp].[moe](C)[sp].d(A)[sp].d(G)[sp].d(T)[sp].d(A)[sp].d(T)[sp].d(G)[sp].d(G)[sp].d(A)[sp].d(T)[sp].[moe](C)[sp].[moe](G)[sp].[moe](G)[sp].[moe](C)[sp].[moe](A)}$$$$V2.0 | 76% and 73% | target mRNA inhibition (HepG2, 0.0092593 µM): 2%; target mRNA inhibition (HepG2, 0.0277778 µM): 25%; target mRNA inhibition (HepG2, 0.0833333 µM): 44%; target mRNA inhibition (HepG2, 0.25 µM): 77%
RNA1{[moe](A)[sp].[cEt](G)[sp].[cEt](T)[sp].d(T)[sp].d(C)[sp].d(C)[sp].d(G)[sp].d(C)[sp].d(A)[sp].d(G)[sp].d(T)[sp].d(A)[sp].d(T)[sp].[cEt](G)[sp].[cEt](G)[sp].[moe](A)}$$$$V2.0 | – | target mRNA inhibition (HepG2, 0.0092593 µM): 12%; target mRNA inhibition (HepG2, 0.0277778 µM): 25%; target mRNA inhibition (HepG2, 0.0833333 µM): 73%; target mRNA inhibition (HepG2, 0.25 µM): 84%
RNA1{[moe](G)[sp].[cEt](T)[sp].[cEt](G)[sp].d(C)[sp].d(A)[sp].d(G)[sp].d(A)[sp].d(G)[sp].d(G)[sp].d(T)[sp].d(G)[sp].d(A)[sp].d(A)[sp].[cEt](G)[sp].[cEt](C)[sp].[moe](G)}$$$$V2.0 | 67% and 70% | –
RNA1{[moe](G)[sp].[moe](T)[sp].[moe](G)[sp].[moe](C)[sp].d(A)[sp].d(G)[sp].d(A)[sp].d(G)[sp].d(G)[sp].d(T)[sp].d(G)[sp].d(A)[sp].d(A)[sp].[moe](G)[sp].[moe](C)[sp].[moe](G)[sp].[moe](A)}$$$$V2.0 | 62% and 54% | –
RNA1{[moe](A)[sp].[moe](A)[sp].[moe](T)[sp].[moe](T)[sp].d(T)[sp].d(A)[sp].d(T)[sp].d(G)[sp].d(C)[sp].d(C)[sp].d(T)[sp].d(A)[sp].d(C)[sp].[moe](A)[sp].[moe](G)[sp].[moe](C)[sp].[moe](C)}$$$$V2.0 | 40% and 36% | –
RNA1{[moe](C)[sp].[moe](A)[sp].[moe](C)[sp].d(T)[sp].d(A)[sp].d(G)[sp].d(T)[sp].d(A)[sp].d(A)[sp].d(A)[sp].d(C)[sp].d(T)[sp].[moe](G)[sp].[moe](A)[sp].[moe](G)[sp].[moe](C)[sp].[moe](C)}$$$$V2.0 | 54% and 37% | –
